{
  "source": "paper PMC9530166",
  "about": "“Allosteric regulation of glycogen breakdown by the second messenger cyclic di-GMP” (Nature Communications, 2022)",
  "key": {"His6-GlgXDETR(49-52)": {"tested_on": "His6-GlgXDETR(49-52)", "assay": "nanoDSF thermal shift assay, RETD49-52 swap mutant", "format": "binding, Streptomyces venezuelae", "settings": "His6-GlgXDETR(49-52) mutant", "experimental": "(§1) Arginine and aspartic acid arranged in an RxxD motif are often found as c-di-GMP binding signatures in effector proteins[28],[34]. […] To determine if either of these motifs are involved in c-di-GMP binding, we swapped the arginine and aspartic acid residues in the two motifs and purified His6-GlgXDETR(49-52) and His6-GlgXDLVR(212-215).\n(§2) For label-free thermal shift assay experiments, 10 μM purified protein in 25 mM Tris pH 8, 150 mM NaCl, 2.5% (v/v) glycerol, and 5 mM MgCl2 was incubated without or with (1 mM) of nonlabeled c-di-GMP or c-di-AMP, respectively, at rt for 10 min. Reactions were subsequently analyzed in a Tycho NT.6 (NanoTemper Technologies) device with a 30 K/min thermal ramp and the internal fluorescence at 330 and 350 nm was recorded. Data analysis and calculation of derivatives was done using the internal evaluation features of the Tycho instrument.\n(§3) 217 Supplementary Fig. 5: NanoDSF assays with mutagenized His6-GlgX variants. (a) Swap of the\n(§4) 219 This was confirmed by DRaCALA, right. For DRaCALA assays, 15 µg of purified E. coli His6-GlgX\n(§5) 220 or His6-Vnz25270, respectively, were mixed with 0.5 µl of [32P]-c-di-GMP (Hartmann Analytic\n(§6) 221 GmbH, Braunschweig) in binding buffer (25 mM Tris pH 8.0, 150 mM NaCl, 2.5% (v/v) glycerol\n(§7) 222 and 5 mM MgCl2). […]\n(§8) 223 air dried for 10 min and analyzed by phosphorimaging. […]"}, "His6-GlgX (Vnz29170)": {"tested_on": "His6-GlgX (Vnz29170)", "assay": "nanoDSF label-free thermal shift assay, wild-type GlgX", "format": "binding, Streptomyces venezuelae", "settings": "10 µM GlgX, 1 mM ligand; without ligand 51.5 °C", "experimental": "Fig. 1 GlgX binds c-di-GMP. a Quantification of c-di-GMP in S. venezuelae cell extracts using LC-MS/MS. Cells were harvested during late vegetative growth (8–10 h), transition to sporulation (12–16 h), and sporulation (18–20 h). Data are presented as the mean of biological replicates ±SD (n = 3). […] Source data are provided in the Source data file. c [^32P]-c-di-GMP binds to GlgX in DRaCALA assay indicated by dark spots in the center of the nitrocellulose membrane. For competition, excess (100 µM) of unlabeled c-di-GMP, c-di-AMP, or GTP was added to the reaction containing [^32P]-c-di-GMP and GlgX.\nTo determine if the interaction between Vnz29170 (herein called GlgX) and c-di-GMP is direct, we purified an N-terminally His6-tagged GlgX protein and performed nano differential scanning fluorimetry (nanoDSF) thermal shift assays. […]\nFor label-free thermal shift assay experiments, 10 μM purified protein in 25 mM Tris pH 8, 150 mM NaCl, 2.5% (v/v) glycerol, and 5 mM MgCl2 was incubated without or with (1 mM) of nonlabeled c-di-GMP or c-di-AMP, respectively, at rt for 10 min. Reactions were subsequently analyzed in a Tycho NT.6 (NanoTemper Technologies) device with a 30 K/min thermal ramp and the internal fluorescence at 330 and 350 nm was recorded. […]"}, "His6-GlgXD342A": {"tested_on": "His6-GlgXD342A", "assay": "BCA reducing-end enzyme assay, GlgXD342A", "format": "biochemical, Streptomyces venezuelae", "settings": "50 µM c-di-GMP, 0.05% glycogen from rabbit, 1 µM enzyme", "experimental": "Fig. 2 c-di-GMP stimulates glycogen breakdown activity of GlgX in vitro. a Bicinchoninic acid (BCA) in vitro enzyme assay. The purple copper bicinchoninate complex indicating GlgX-mediated generation of reducing ends in glycogen was quantified by photometric measurements at 562 nm. A562 values were converted into reducing ends [µM glucose equivalents] based on D-glucose as a standard. Reactions contained 0.05% (w/v) glycogen from rabbit, 1 µM GlgX and increasing concentrations of c-di-GMP (0–100 µM). Source data are provided as a Source data file. b BCA assay containing 0.05% of either glycogen from rabbit, pullulan, amylopectin from maize or amylose from potato as substrates. Where appropriate, 1 µM GlgX or 50 µM c-di-GMP were added to the reaction samples. Source data are provided as a Source data file. c BCA assay as in a with or without c-di-GMP (50 µM), 0.05% glycogen from rabbit (S) and 1 µM Vnz25270, GlgX, the active site mutants GlgXD342A, GlgXE378A, GlgXD342A+E378A, or the c-di-GMP-binding mutant variant GlgXDETR49-52 as indicated. […]\nHydrolysis of carbohydrates was assessed in vitro by measuring the accumulation of reducing sugar ends using the BCA assay[42] and D-glucose as a standard for calibration (Supplementary Fig. 11). […] 125 μl sample aliquots were transferred in duplicates to a 96 well plate and the absorbance at 562 nm was measured using a plate reader."}, "His6-GlgXDLVR(212-215)": {"tested_on": "His6-GlgXDLVR(212-215)", "assay": "nanoDSF thermal shift assay, RLVD212-215 swap mutant", "format": "binding, Streptomyces venezuelae", "settings": "His6-GlgXDLVR(212-215) mutant", "experimental": "as §1, §2, §3, §4, §5, §6, §7, §8"}},
  "note": "Entries after “also recorded” stand apart in the source; their conditions may differ.",
  "data": [
    {"smiles": "Nc1nc2c(ncn2[C@@H]2O[C@@H]3CO[P@](=O)(O)O[C@H]4[C@@H](O)[C@H](n5cnc6c(=O)[nH]c(N)nc65)O[C@@H]4CO[P@](=O)(O)O[C@H]3[C@H]2O)c(=O)[nH]1", "note": "[c-di-GMP, bis-(3′−5′)-cyclic diguanosine monophosphate]", "values": [
      {"measurement": "effect of c-di-GMP in nanoDSF", "setting": "His6-GlgXDETR(49-52)", "result": "abolishes c-di-GMP binding; also recorded: no effect"},
      {"measurement": "melting point of His6-GlgX in the presence of ligand", "setting": "His6-GlgX (Vnz29170)", "result": 55.8, "unit": "°C"},
      {"measurement": "stimulation of enzyme activity by c-di-GMP", "setting": "His6-GlgXD342A", "result": "could not be stimulated"},
      {"measurement": "shift in melting/unfolding temperature by c-di-GMP", "setting": "His6-GlgXDLVR(212-215)", "result": "still allows ligand binding; also recorded: still caused a shift"}
    ]}
  ]
}
